Experimental findings from patent EP4644383A1 (Jiangsu Yahong Meditech Co., Ltd., priority 2022, dated 2024) are described below.

A value given as a limit tells only on which side of the number the result lay.

Common to all, as to type: biochemical
Test [1] concerns the target T1, FGFR3 (Homo sapiens, UniProt P22607).
T1 construct: FGFR3's cytoplasmic domain [436-806 (terminal) amino acids]; purchased Carna 08-135
The test can be described thus: FGFR3 kinase activity inhibition assay (LanthaScreen TR-FRET). As to conditions: for IC50: FGFR3 kinase, TR-FRET, read-out: IC50 (nM) FGFR3; for Selectivity (X) FGFR1/FGFR3: ratio of IC50 FGFR1/FGFR3, selectivity towards FGFR3; for Selectivity (X) FGFR2/FGFR3: ratio of IC50 FGFR2/FGFR3, selectivity towards FGFR3; for Selectivity (X) FGFR4/FGFR3: ratio of IC50 FGFR4/FGFR3, selectivity towards FGFR3. Put shortly:
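Read-out is TR-FRET, with the 520 nm/495 nm emission ratio normalised to DMSO (max) and enzyme-free (min) controls. Enzyme was the FGFR3 cytoplasmic domain, residues 436-806. EDTA (10 mM) stopped the reaction, followed by 60 min at 22 °C before reading.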
(In general: TR-FRET usually uses a lanthanide donor and a delayed reading to cut background.)

Test [2] has as its target T2, FGFR1 (Homo sapiens, UniProt P11362).
T2 construct: cytoplasmic domain [398-822 (terminal) amino acids]; purchased Carna 08-133
The test can be described thus: FGFR1 kinase activity inhibition assay (LanthaScreen TR-FRET). To be noted: FGFR1 kinase, TR-FRET; read-out: IC50 (nM) FGFR1. Put shortly: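 Emission ratio 520 nm/495 nm by TR-FRET after stopping reaction with 10 mM EDTA and 60 min incubation at 22°C. Inhibition normalized between no-enzyme (min) and DMSO (max) controls, then fitted to a four-parameter curve (Top, Bottom, HillSlope).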

Test [3] deals with T3, FGFR2 (Homo sapiens, UniProt P21802).
T3 construct: FGFR2's cytoplasmic domain [399-821 (terminal) amino acids]; purchased Carna 08-134
T3 sequence (P21802 399-821): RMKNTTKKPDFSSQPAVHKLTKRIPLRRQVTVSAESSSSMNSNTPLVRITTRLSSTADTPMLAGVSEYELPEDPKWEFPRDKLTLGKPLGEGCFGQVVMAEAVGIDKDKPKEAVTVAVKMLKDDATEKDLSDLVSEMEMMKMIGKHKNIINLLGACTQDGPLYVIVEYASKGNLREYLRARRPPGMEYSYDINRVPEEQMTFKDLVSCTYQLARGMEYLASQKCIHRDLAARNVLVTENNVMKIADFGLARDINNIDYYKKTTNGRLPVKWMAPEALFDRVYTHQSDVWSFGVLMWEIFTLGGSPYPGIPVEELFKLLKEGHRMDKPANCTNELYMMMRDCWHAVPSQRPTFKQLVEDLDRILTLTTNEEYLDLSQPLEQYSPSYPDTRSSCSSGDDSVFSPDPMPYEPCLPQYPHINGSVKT
The test can be described thus: FGFR2 kinase activity inhibition assay (LanthaScreen TR-FRET). To be noted: FGFR2 kinase, TR-FRET; read-out: IC50 (nM) FGFR2. How it is done:
(§1) FGFR1 kinase activity was measured using Invitrogen LanthaScreen™ assay technology, which utilized fluorescently-labeled peptides and terbium-labeled antibodies to directly measure an amount of the phosphorylated substrate through time-resolved fluorescence energy transfer (TR-FRET). • ① The test compounds were diluted: starting from a concentration of 1 µM, with a buffer solution in a three-fold serial dilution, the buffer solution being composed of 50 mM HEPES, 10 mM MgCl2, 0.01% TritonX-100, 0.01% BSA, 4 mM DTT (pH 7.5), and 1% DMSO; • ② 0.01 nM recombinant human GST fusion protein FGFR1's cytoplasmic domain [398-822 (terminal) amino acids] (Carna: 08-133) was formulated into a 2 × solution, mixed well with the test compounds, and incubated at 23°C for 10 minutes; • ③ 28 nM Fluorescein-Poly GT peptide substrate (Life Technologies: PV3611) and 28 µM ATP were formulated into a 2 × solution, mixed well with the test compounds and enzyme in ②, and incubated at 23°C for 30 minutes; • ④ 10 µL of 2nM Tb-PY20 antibody (Life Technologies: PV3552) and 10 mM EDTA were added to quench the kinase reaction, and incubated at 22°C for 60 minutes. • ⑤ The reaction was measured using a PerkinElmer EnVision multimode plate reader through TR-FRET dual wavelength detection. • 1. The RFU values were copied from the Envision program. • 2. The ratio of RFU 520nm/RFU 495nm was calculated. • 3. The value of the ratio was converted to a percentage inhibition value. % Inhibition = (max-data)/(max-min) × 100 [formula]
(§2) "Min" represents the ratio of the control without enzyme, "max" represents the ratio of the DMSO control, and "data" represents the ratio of the compounds in wells with different concentrations.
(§3) "Top" refers to the maximum response, "Bottom" refers to the minimum response, and "HillSlope" refers to the slope of the curve.
According to the same method as that in the FGFR1 kinase activity inhibition assay, the inhibitory activities against FGFR2, FGFR3 and FGFR4 were tested using FGFR2's cytoplasmic domain [399-821 (terminal) amino acids] (Carna: 08-134), FGFR3's cytoplasmic domain [436-806 (terminal) amino acids] (Carna: 08-135) and FGFR4's cytoplasmic domain [460-802 (terminal) amino acids] (Carna: 08-136), respectively. […]

The target in test [4] is T4, FGFR4 (Homo sapiens, UniProt P22455).
T4 construct: FGFR4's cytoplasmic domain [460-802 (terminal) amino acids]; purchased Carna 08-136
T4 sequence (P22455 460-802): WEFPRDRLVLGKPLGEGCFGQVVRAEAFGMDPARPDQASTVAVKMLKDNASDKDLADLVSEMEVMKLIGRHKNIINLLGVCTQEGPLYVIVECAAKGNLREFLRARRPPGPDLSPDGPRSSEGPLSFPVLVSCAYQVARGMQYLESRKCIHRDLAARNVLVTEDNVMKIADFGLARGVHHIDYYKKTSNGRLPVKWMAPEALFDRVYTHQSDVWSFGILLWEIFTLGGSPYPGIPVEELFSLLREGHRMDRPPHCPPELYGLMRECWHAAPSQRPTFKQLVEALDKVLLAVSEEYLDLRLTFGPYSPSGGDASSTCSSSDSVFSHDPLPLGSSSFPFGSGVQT
Briefly: FGFR4 kinase activity inhibition assay (LanthaScreen TR-FRET). To be noted: FGFR4 kinase, TR-FRET; read-out: IC50 (nM) FGFR4. On the procedure: as §1, §2, §3
According to the same method as that in the FGFR1 kinase activity inhibition assay, the inhibitory activities against FGFR2, FGFR3 and FGFR4 were tested using FGFR2's cytoplasmic domain [399-821 (terminal) amino acids] (Carna: 08-134), FGFR3's cytoplasmic domain [436-806 (terminal) amino acids] (Carna: 08-135) and FGFR4's cytoplasmic domain [460-802 (terminal) amino acids] (Carna: 08-136), respectively. Table 1 reports the kinase activity inhibition results and selectivity towards FGFR3 of each compound.

T1 sequence (P22607 436-806): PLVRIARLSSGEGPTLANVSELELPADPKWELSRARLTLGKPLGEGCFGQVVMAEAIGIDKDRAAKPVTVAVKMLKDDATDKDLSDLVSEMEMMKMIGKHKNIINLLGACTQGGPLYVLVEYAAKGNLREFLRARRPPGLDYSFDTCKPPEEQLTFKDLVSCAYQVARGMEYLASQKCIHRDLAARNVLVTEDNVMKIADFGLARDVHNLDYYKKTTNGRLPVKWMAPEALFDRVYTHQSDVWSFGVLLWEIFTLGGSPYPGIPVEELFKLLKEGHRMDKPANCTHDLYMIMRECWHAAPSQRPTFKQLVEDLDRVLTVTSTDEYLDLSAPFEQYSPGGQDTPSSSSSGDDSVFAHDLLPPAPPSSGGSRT
T2 sequence (P11362 398-822): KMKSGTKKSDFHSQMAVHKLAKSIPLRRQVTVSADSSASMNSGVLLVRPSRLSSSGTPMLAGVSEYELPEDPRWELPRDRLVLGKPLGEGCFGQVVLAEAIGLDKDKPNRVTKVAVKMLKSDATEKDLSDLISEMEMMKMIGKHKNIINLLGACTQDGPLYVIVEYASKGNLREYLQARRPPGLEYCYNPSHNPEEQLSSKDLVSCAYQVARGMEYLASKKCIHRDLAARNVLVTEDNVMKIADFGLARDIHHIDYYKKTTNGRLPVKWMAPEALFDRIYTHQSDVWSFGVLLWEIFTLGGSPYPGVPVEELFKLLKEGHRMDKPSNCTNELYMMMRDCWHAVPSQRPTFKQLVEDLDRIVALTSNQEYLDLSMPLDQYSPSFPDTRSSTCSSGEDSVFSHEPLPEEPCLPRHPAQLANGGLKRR

On to `Cc1cc(O[C@H](C)c2c(Cl)cncc2Cl)cc2c(-c3cnn(C)c3)n[nH]c12` [Example 2, (R)-5-(1-(3,5-dichloropyridin-4-yl)ethoxy)-7-methyl-3-(1-methyl-1H-pyrazol-4-yl)-1H-indazole], for which the IC50 in test [1] is 1 to 10 nM; in test [2], above 100 nM; in test [3], 10 to 100 nM; in test [4], above 100 nM. Further, the “Selectivity (X) FGFR1/FGFR3” value in test [1] is recorded as “B (B represents 20 ≤ multiple X<50)”. Moreover, in test [1], the “Selectivity (X) FGFR2/FGFR3” value is reported as “A (A represents 1 ≤ multiple X<20)”. In addition, the “Selectivity (X) FGFR4/FGFR3” value in test [1] was “B (B represents 20 ≤ multiple X<50)”.
For the molecule `C[C@@H](Oc1cc(F)c2[nH]nc(-c3cnn(C)c3)c2c1)c1c(Cl)cncc1Cl` [Example 5, (R)-5-(1-(3,5-dichloropyridin-4-yl)ethoxy)-7-fluoro-3-(1-methyl-1H-pyrazol-4-yl)-1H-indazole], in test [1], the IC50 is below 1 nM, the “Selectivity (X) FGFR1/FGFR3” value was “A (A represents 1 ≤ multiple X<20)”, the “Selectivity (X) FGFR2/FGFR3” value is “A (A represents 1 ≤ multiple X<20)” and the “Selectivity (X) FGFR4/FGFR3” value is recorded as “B (B represents 20 ≤ multiple X<50)”. Besides, the IC50 in test [2] was in the range of 1 to 10 nM. For the same molecule, the IC50 in test [3] was below 1 nM. Besides, the IC50 in test [4] lay in the range of 1 to 10 nM.
As for `C[C@@H](Oc1cc(C2CC2)c2[nH]nc(-c3cnn(C)c3)c2c1)c1c(Cl)cncc1Cl` [Example 7, (R)-7-cyclopropyl-5-(1-(3,5-dichloropyridin-4-yl)ethoxy)-3-(1-methyl-1H-pyrazol-4-yl)-1H-indazole], in test [1], the IC50 was in the range of 1 to 10 nM, the “Selectivity (X) FGFR1/FGFR3” value is recorded as “B (B represents 20 ≤ multiple X<50)”, the “Selectivity (X) FGFR2/FGFR3” value is “A (A represents 1 ≤ multiple X<20)” and the “Selectivity (X) FGFR4/FGFR3” value is “B (B represents 20 ≤ multiple X<50)”. Further, in test [2], the IC50 is above 100 nM. Also, the IC50 in test [3] is 10 to 100 nM. The IC50 in test [4] was above 100 nM.
Take `C[C@@H](Oc1cc(F)c2[nH]nc(-c3cnn(CCS(C)(=O)=O)c3)c2c1)c1c(Cl)cncc1Cl` [Example 11, (R)-5-(1-(3,5-dichloropyridin-4-yl)ethoxy)-7-fluoro-3-(1-(2-(methylsulfonyl)ethyl)-1H-pyrazol-4-yl)-1H-indazole]: in test [1], the half-maximal inhibitory concentration (IC50) is 1 to 10 nM, the “Selectivity (X) FGFR1/FGFR3” value is given as “A (A represents 1 ≤ multiple X<20)”, the “Selectivity (X) FGFR2/FGFR3” value is on record as “A (A represents 1 ≤ multiple X<20)” and the “Selectivity (X) FGFR4/FGFR3” value is reported as “A (A represents 1 ≤ multiple X<20)”. Also, the IC50 in test [2] is 10 to 100 nM. In addition, the IC50 in test [3] lay in the range of 1 to 10 nM. Moreover, the IC50 in test [4] fell in the range of 10 to 100 nM.
For the molecule `C[C@@H](Oc1cc(F)c2[nH]nc(-c3cnn(CC4CC4)c3)c2c1)c1c(Cl)cncc1Cl` [Example 14, (R)-3-(1-(cyclopropylmethyl)-1H-pyrazol-4-yl)-5-(1-(3,5-dichloropyridin-4-yl)ethoxy)-7-fluoro-1H-indazole], in test [1], the IC50 lay in the range of 1 to 10 nM, the “Selectivity (X) FGFR1/FGFR3” value is reported as “A (A represents 1 ≤ multiple X<20)”, the “Selectivity (X) FGFR2/FGFR3” value was “A (A represents 1 ≤ multiple X<20)” and the “Selectivity (X) FGFR4/FGFR3” value was “A (A represents 1 ≤ multiple X<20)”. The IC50 in test [2] lay within 10 to 100 nM. Moreover, the IC50 in test [3] lay within 1 to 10 nM. Moreover, in test [4], the IC50 lay within 10 to 100 nM.
Take `C[C@@H](Oc1cc(F)c2[nH]nc(-c3cnn(CCN(C)C)c3)c2c1)c1c(Cl)cncc1Cl` [Example 15, (R)-2-(4-(5-(1-(3,5-dichloropyridin-4-yl)ethoxy)-7-fluoro-1H-indazol-3-yl)-1H-pyrazol-1-yl)-N,N-dimethylethan-1-amine]: in test [1], the half-maximal inhibitory concentration (IC50) was 1 to 10 nM, the “Selectivity (X) FGFR1/FGFR3” value is recorded as “A (A represents 1 ≤ multiple X<20)”, the “Selectivity (X) FGFR2/FGFR3” value is listed as “A (A represents 1 ≤ multiple X<20)” and the “Selectivity (X) FGFR4/FGFR3” value was “C (C represents 50 ≤ multiple X<100)”. Further, the IC50 in test [2] is 10 to 100 nM. In test [3], the IC50 is 1 to 10 nM. In addition, the 50% inhibitory concentration (IC50) in test [4] is above 100 nM.
For the molecule `C[C@@H](Oc1cc(F)c2[nH]nc(-c3cnn(CCCN(C)C)c3)c2c1)c1c(Cl)cncc1Cl` [Example 17, (R)-3-(4-(5-(1-(3,5-dichloropyridin-4-yl)ethoxy)-7-fluoro-1H-indazol-3-yl)-1H-pyrazol-1-yl)-N,N-dimethylpropan-1-amine], in test [1], the IC50 is below 1 nM, the “Selectivity (X) FGFR1/FGFR3” value is reported as “A (A represents 1 ≤ multiple X<20)”, the “Selectivity (X) FGFR2/FGFR3” value is “A (A represents 1 ≤ multiple X<20)” and the “Selectivity (X) FGFR4/FGFR3” value is “D (D represents 100 ≤ multiple X)”. For the same molecule, in test [2], the IC50 is 1 to 10 nM. In test [3], the IC50 was below 1 nM. Further, the IC50 in test [4] was above 100 nM.
`C[C@@H](Oc1cc(F)c2[nH]nc(-c3cnn(CCN4CCCCC4)c3)c2c1)c1c(Cl)cncc1Cl` [Example 23, (R)-5-(1-(3,5-dichloropyridin-4-yl)ethoxy)-7-fluoro-3-(1-(2-(piperidin-1-yl)ethyl)-1H-pyrazol-4-yl)-1H-indazole]: in test [1], the IC50 was in the range of 1 to 10 nM, the “Selectivity (X) FGFR1/FGFR3” value is “B (B represents 20 ≤ multiple X<50)”, the “Selectivity (X) FGFR2/FGFR3” value is reported as “A (A represents 1 ≤ multiple X<20)” and the “Selectivity (X) FGFR4/FGFR3” value is listed as “D (D represents 100 ≤ multiple X)”. In addition, the IC50 in test [2] lay within 10 to 100 nM. Besides, in test [3], the IC50 lay within 1 to 10 nM. Further, the half-maximal inhibitory concentration (IC50) in test [4] was above 100 nM.
In the case of `C[C@@H](Oc1cc(F)c2[nH]nc(-c3cnn(CCN4CCS(=O)(=O)CC4)c3)c2c1)c1c(Cl)cncc1Cl` [Example 24, (R)-4-(2-(4-(5-(1-(3,5-dichloropyridin-4-yl)ethoxy)-7-fluoro-1H-indazol-3-yl)-1H-pyrazol-1-yl)ethyl)thiomo rpholine 1,1-dioxide], the IC50 is below 1 nM in test [1], 10 to 100 nM in test [2], 1 to 10 nM in test [3] and 10 to 100 nM in test [4]. Further, in test [1], the “Selectivity (X) FGFR1/FGFR3” value is recorded as “A (A represents 1 ≤ multiple X<20)”. Besides, the “Selectivity (X) FGFR2/FGFR3” value in test [1] is “A (A represents 1 ≤ multiple X<20)”. In test [1], the “Selectivity (X) FGFR4/FGFR3” value is reported as “C (C represents 50 ≤ multiple X<100)”.
With `Cc1cc(O[C@H](C)c2c(Cl)cncc2Cl)cc2c(-c3cnn(CCN4CCOCC4)c3)n[nH]c12` [Example 27, (R)-4-(2-(4-(5-(1-(3,5-dichloropyridin-4-yl)ethoxy)-7-methyl-1H-indazol-3-yl)-1H-pyrazol-1-yl)ethyl)morpholine], the IC50 was 1 to 10 nM in test [1], above 100 nM in test [2], 10 to 100 nM in test [3] and above 100 nM in test [4]. In addition, the “Selectivity (X) FGFR1/FGFR3” value in test [1] is “B (B represents 20 ≤ multiple X<50)”. Also, in test [1], the “Selectivity (X) FGFR2/FGFR3” value is given as “A (A represents 1 ≤ multiple X<20)”. Besides, the “Selectivity (X) FGFR4/FGFR3” value in test [1] is “C (C represents 50 ≤ multiple X<100)”.

In general, IC50 refers to the concentration that gives 50% inhibition.
